Reference: patent publication US11369697B2, “Liposome nanoparticles for tumor magnetic resonance imaging” (UNITED KINGDOM RESEARCH AND INNOVATION, priority 2009, dated 2022)

Assay: T1 relaxation of Gd lipids in aqueous solution (MRI efficacy)
Assay type: physicochemical
Settings: 0.5 mM, 4.7 T
Method: In order to establish the relaxation properties of Gd.DOTA.DSA, MRI studies of the lipid in aqueous solution were performed and T1 values and relaxivity parameters generated in milliseconds. […] A standard T1 saturation recovery method (spin echo sequence) was used to determine T1 values (according to Eq. 1), where x is TR (time to repeat), and Si is the measured signal for a given TR. Si=S0(1−e^(−x/T^1^))
MRI Analysis of Gd.DOTA.DSA For T1 analysis, Gd.DOTA.DSA 4, Gd.DTPA.BSA, and controls of the metal free compound, and Magnevist (Schering A G, Germany) were added to water to give a final concentration of 0.5 mM. The solutions (200 μL) were placed in eppendorf tubes and T1 relaxation values measured on a 4.7 T Varian MR scanner at ambient temperature. For relaxivity measurements; gadolinium liposome formulations were prepared in order to obtain five different gadolinium concentrations between […] in 200 μL of distilled water and the molar relaxivity r1 (mM^−1 s^−1) determined. T1 values were obtained using saturation recovery experiments performed with a standard spin-echo sequence and a 2 mm single slice acquisition (TR=50, 100, 200, 300, 500, 700, 1200, 3000, 5000, 7000 ms, TE=15 ms), number of signal averages; 2, FOV; 70×70 mm^2, collected into a matrix of 256×128.

- T1 relaxation compared to Gd.DTPA.BSA lipid: comparable, if slightly better
- efficacy compared to Magnevist and Gd.DTPA.BSA (T1 values) (lipid in aqueous solution, clinically relevant dose): compare favourably
Substance: Gadolinium (III) 2-{4,7-Bis-Carboxymethyl-10-[(N, N-Distearylamidomethyl-N′-Amido-Methyl]-1,4,7,10-Tetra-Azacyclododec-1-yl}-Acetic Acid [Gd.DOTA.DSA]
